Experimental data published in US5340727A, “GPIbα fragments and recombinant DNA expression vectors” (The Scripps Research Institute, priority 1990, dated 1994).
Where no end group is shown, it is not given here.

Columns and labels:
vWF-GPIb interaction [1] = target: T1, vWF-GPIb interaction (Homo sapiens, UniProt P04275+P07359); assay: Ristocetin-induced binding of 125I-labeled vWF to fresh or formalin-fixed platelets; settings: peptides tested individually; read-out: IC50, inhibition of binding of vWF to the GPIb of platelets by synthetic peptides
T1 construct: endogenous in cells; host or cells: fresh or formalin-fixed platelets
T1 sequence (P07359 17-652): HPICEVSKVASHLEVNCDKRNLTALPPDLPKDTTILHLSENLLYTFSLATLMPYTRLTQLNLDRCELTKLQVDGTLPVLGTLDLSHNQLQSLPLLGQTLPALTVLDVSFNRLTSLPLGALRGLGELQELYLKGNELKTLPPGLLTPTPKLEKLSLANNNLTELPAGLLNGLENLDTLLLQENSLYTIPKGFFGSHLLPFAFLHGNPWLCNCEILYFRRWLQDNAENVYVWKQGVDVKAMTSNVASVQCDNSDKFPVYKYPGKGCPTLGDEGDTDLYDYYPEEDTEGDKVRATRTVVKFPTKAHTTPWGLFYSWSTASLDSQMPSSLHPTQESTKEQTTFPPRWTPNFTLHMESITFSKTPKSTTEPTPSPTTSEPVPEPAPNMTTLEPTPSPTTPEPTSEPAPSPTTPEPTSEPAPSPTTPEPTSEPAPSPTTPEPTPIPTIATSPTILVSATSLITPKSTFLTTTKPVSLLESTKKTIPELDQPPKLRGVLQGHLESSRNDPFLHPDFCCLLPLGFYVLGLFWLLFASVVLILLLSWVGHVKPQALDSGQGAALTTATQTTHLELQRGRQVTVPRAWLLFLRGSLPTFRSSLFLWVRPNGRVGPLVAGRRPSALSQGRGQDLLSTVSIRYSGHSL
T1 sequence (P04275 764-2813 limits assumed): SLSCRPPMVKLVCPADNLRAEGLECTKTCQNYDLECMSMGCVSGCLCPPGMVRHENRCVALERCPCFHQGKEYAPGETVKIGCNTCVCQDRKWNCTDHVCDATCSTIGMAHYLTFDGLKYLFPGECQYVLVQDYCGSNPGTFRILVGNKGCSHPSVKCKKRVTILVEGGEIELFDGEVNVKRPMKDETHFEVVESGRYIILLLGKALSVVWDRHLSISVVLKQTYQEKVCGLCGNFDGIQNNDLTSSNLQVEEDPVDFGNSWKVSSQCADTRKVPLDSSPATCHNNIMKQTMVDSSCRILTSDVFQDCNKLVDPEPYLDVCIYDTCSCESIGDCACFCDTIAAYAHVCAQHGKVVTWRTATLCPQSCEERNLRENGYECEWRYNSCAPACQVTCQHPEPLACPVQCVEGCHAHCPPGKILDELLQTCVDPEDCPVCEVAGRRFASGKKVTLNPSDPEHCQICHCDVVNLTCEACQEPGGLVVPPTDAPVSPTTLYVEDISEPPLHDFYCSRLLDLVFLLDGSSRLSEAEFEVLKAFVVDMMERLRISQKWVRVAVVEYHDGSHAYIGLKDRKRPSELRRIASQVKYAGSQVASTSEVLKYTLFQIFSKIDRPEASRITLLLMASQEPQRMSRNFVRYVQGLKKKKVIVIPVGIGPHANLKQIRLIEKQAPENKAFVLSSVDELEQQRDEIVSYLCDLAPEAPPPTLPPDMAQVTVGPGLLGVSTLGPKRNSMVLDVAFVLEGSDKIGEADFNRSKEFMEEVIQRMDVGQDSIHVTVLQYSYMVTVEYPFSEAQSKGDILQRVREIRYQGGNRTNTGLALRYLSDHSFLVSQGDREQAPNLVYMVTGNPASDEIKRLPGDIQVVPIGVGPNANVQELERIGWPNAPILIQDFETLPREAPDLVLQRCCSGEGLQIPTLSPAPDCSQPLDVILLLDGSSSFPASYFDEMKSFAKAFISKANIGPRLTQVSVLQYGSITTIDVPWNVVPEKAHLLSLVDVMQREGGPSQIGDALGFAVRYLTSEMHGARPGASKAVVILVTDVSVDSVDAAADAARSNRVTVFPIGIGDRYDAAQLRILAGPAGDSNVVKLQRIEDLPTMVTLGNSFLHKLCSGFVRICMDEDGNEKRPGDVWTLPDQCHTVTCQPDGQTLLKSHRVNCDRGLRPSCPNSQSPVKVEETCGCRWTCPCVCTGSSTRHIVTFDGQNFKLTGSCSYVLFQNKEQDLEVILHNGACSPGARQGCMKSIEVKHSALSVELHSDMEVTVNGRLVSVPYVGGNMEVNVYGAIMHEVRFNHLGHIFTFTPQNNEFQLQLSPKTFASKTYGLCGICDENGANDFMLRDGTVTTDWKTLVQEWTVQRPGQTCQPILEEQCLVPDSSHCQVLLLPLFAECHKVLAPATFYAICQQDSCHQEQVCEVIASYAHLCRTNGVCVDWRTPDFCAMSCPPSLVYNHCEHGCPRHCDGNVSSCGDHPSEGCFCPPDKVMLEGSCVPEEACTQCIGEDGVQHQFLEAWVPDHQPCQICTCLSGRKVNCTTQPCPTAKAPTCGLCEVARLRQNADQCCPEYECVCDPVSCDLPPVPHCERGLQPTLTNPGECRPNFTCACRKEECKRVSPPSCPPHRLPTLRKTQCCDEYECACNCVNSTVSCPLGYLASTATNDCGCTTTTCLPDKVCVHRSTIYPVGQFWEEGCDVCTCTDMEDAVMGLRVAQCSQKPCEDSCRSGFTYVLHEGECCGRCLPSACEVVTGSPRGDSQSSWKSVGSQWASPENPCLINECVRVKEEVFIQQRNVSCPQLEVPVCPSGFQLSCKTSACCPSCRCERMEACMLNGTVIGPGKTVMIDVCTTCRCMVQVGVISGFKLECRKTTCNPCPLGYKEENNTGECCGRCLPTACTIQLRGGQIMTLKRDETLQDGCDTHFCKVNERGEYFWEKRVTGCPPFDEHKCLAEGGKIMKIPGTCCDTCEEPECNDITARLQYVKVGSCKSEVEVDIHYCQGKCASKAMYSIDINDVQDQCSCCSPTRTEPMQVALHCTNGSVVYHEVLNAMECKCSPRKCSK
Description: The assay system is based on the use of ^125 I-labeled vWF and fresh or formalin-fixed platelets; ristocetin was used to induce the binding of vWF to GPIb. After incubation for 30 minutes at 37° C., without stirring, separation of bound platelet from free vWF ligand was achieved by centrifugation through 20% sucrose in Tyrode buffer, followed by measurement of the bound radioactivity as described in Ruggeri et al., J. Clin. Invest., 72, 1-12 (1983). Nonspecific binding was evaluated for selected points by measuring the binding in the presence of a 40-fold excess of unlabeled vWF. Binding isotherms were evaluated by Scatchard-type analysis to determine binding parameters (including the estimate of nonspecific binding) using the computer-assisted program "Ligand" as described in Munson, Methods Enzymol., 92, 542-576 (1983).

vWF-GPIb interaction [2] = target: T1, vWF-GPIb interaction; assay: Inhibition of ristocetin-induced binding of vWF to formalin-fixed platelets (Example 1); settings: 125I-vWF 5 μg/ml, ristocetin 1.0 mg/ml
Description: To test the inhibitory activity of the peptides of the present invention, formalin-fixed platelets were used at a final concentration of 1×10^11 /l. Assayed peptides were then added at various concentrations. One third final volume of vWF-deficient plasma was then added followed by ^125 I-vWF at a final concentration of 5 μg/ml. Ristocetin was then added at a concentration of 1.0 mg/ml. After incubation for o30 minutes at room temperature, bound and free vWF ligand were separated by centrifuging 50 μl of the mixture through 300 μl of 20% sucrose at 12,000 g for 4 minutes. The platelet pellet was then separated from the rest of the mixture to determine platelet-bound radioactivity. Nonspecific binding was defined as the residual binding of ^125 I-vWF in the presence of a 50-fold excess of unlabeled vWF but in the absence of any peptides.
Percent inhibition with a given peptide was calculated by dividing the specific cpm […].

vWF-GPIb interaction [3] = target: T1, vWF-GPIb interaction; assay: Inhibition of asialo-vWF binding to fresh platelets (Example 2); settings: 125I-asialo-vWF 5 μg/ml
Description: Fresh platelets were prepared by drawing blood into a solution of 11 mM trisodium citrate and 2 mM EDTA. Platelet-rich plasma was then prepared by differential centrifugation. The platelet count was then adjusted to 1×10^11 /l. Peptides were then added to various concentrations and ^125 I-asialo-vWF was then added at a final concentration of 5 μg/ml. After incubation for 30 minutes at room temperature, bound and free vWF ligand were separated by centrifuging 50 μl of the mixture through 300 μl of 20% sucrose at 12,000 g for 4 minutes. The platelet pellet was then separated from the rest of the mixture to determine platelet-bound radioactivity. Non-specific binding was defined as the residual binding of ^125 I- asialo-vWF in the presence of a 50-fold excess of unlabeled vWF but in the absence of any peptides.
Percent inhibition with a given peptide was calculated by dividing the specific cpm obtained when various concentrations of peptide were added by the specific cpm in the absence of peptide.

GPIb-IX = GPIb-IX (Homo sapiens, UniProt P04275); assay: biochemical
Sequence of GPIb-IX (P04275 764-2813 limits assumed): as above
Description: (§1) Percent inhibition of binding of vWF to platelets was measured using I^125 labelled vWF prepared according to the methods of Ruggeri et al. See also DeMarco et al., J. Clin. Invest., 68, 321-328 (1981). Binding of vWF to platelets induced by ristocetin and/or botrocetin (and inhibition thereof) was measured according to the method of MacFarlane et al., Thromb. Diath. Haemorrh., 34, 306-308 (1975) which utilizes washed platelets fixed with formaldehyde. […] Each peptide, used at a final concentration of 500 μmol/l with a ^125 I-vWF concentration of 2 μg/ml, is identified by the same numeral used in the top part of the figure.
(§2) Further experiments were performed with a constant ^125 I-vWF concentration of 2 μg/ml and varying peptide concentration, as indicated on the FIG. 2 abscissa. […] One hundred percent binding was that measured in the presence of Hepes buffer instead of peptide.
(§3) Binding inhibition experiments were conducted analogous to those in Example 6 using an I^125 -vWF concentration of 2 μg/ml.

GPIb-IX (Homo sapiens) = target: T2, GPIb-IX (Homo sapiens); assay: Ristocetin-dependent 125I-vWF binding to formaldehyde-fixed washed platelets (Examples 5-7); settings: 125I-vWF 2 μg/ml; read-out: concentration that inhibits 50% of ristocetin-induced binding of vWF
T2 construct: which utilizes washed platelets fixed with formaldehyde; endogenous in cells; host or cells: washed platelets fixed with formaldehyde
T2 sequence (P04275 764-2813 limits assumed): as above
Description: as §1, §2, §3

Substance | IC50 (vWF-GPIb interaction [1]) [µM] | other results
EEDTEGDKVRATRTV | ≤ 500 | –
KRKRKRKRKRKRKR [(KR)7] | – | IC50 (vWF-GPIb interaction [2]): 9 µM
NLTALPPDLPKDTTI | ≤ 500 | –
PPDLPKDTT | > 500 | –
KRKRKRKRKR [(KR)5] | – | IC50 (vWF-GPIb interaction [3]): 1.7 µM; IC50 (vWF-GPIb interaction [2]): 13 µM
PPDLPKDTTILHLSE | ≤ 500 | –
EEDTE [EEDTE] | > 500 | –
GDTDLYDYYPEEDTE [peptide 25] | ≤ 500 | IC50 (GPIb-IX): 530 µM; IC50 (GPIb-IX (Homo sapiens)): 420 µM
DKRNLTALPPDLPKDTT | ≤ 500 | –
PGLLTPTPKLEKLSL | ≤ 500 | –
KQGVDVKAMTSNVAS | ≤ 500 | –
